Experimental data: the Bradley open melting point set (2014)
Values joined by “and” are separate entries in the source; they are usually repeats but may differ in a detail not shown here. Equal entries are not always repeated.

Row | melting point | Structure (SMILES)
1 | 192 °C | O=C(O)c1cc2ccccc2oc1=O [coumarin-3-carboxylic acid]
2 | 286 °C | O=c1c(O)c(-c2ccc(O)cc2)oc2ccccc12 [3,4'-dihydroxyflavone]
3 | 188 °C | CC(C)(C)c1cc(C=O)cc(C(C)(C)C)c1O [3,5-di-tert-butyl-4-hydroxybenzaldehyde]
4 | 182 °C | Cc1cc(/C=C2\SC(N(CC#N)c3ccccc3)=NC2=O)c(C)n1-c1ccc(C(F)(F)F)cc1 [OSM-S-42]
5 | 41 °C | COc1ccc(C(C)=O)c(OC)c1 [2,4-dimethoxyacetophenone]
6 | 136 °C | Nc1cc2ccccc2oc1=O [3-aminocoumarin]
7 | 128 °C | CCSC(SCC)C(O)C(O)C(O)C(O)CO (stereo unspecified) [6,6-di(ethylthio)hexane-1,2,3,4,5-pentaol]
8 | -92 °C | CCCCOC(=O)CCC [N-butyl butyrate]
9 | 39 °C | CSc1ccc(Br)cc1 [4-bromothioanisole]
10 | 23 °C | Nc1cccc(I)c1 [3-iodoaniline]
11 | 155 °C | CC1(C)C[C@@H](C(=O)O)[C@@H]1N (relative stereo) [trans-2-Amino-3,3-dimethylcyclobutane-1-carboxylic acid]
12 | 89 °C | CC(C)(C)OC(=O)NCC(=O)O [N-boc-glycine]
13 | -7 °C | CCCCCCCCCCCCCC(C)C [2-Methylpentadecane]
14 | 66 °C | CCCCCCCCCCCCCCCCCCCCCCCCCCCCC [Nonacosane]
15 | 174 °C | CC[C@H](C)C(=O)O[C@H]1C[C@@H](C)C=C2C=C[C@H](C)[C@H](CC[C@@H]3C[C@@H](O)CC(=O)O3)[C@H]21 [lovastatin]
16 | 238 °C | O=C(Nc1ccccc1)Nc1ccccc1 [1,3-Diphenylurea]
17 | 346 °C | O=C(O)c1cc(=O)[nH]c(=O)[nH]1 [orotic acid]
18 | 100 °C (2×) and 102 °C | c1ccc2c(c1)Cc1ccccc1O2 [xanthene]
19 | 64 °C | Cc1cc(O)ccc1Br [4-Brom-3-methylphenol]
20 | 183 °C | CC1(C)[C@@H]2CC[C@]13CS(=O)(=O)N[C@@H]3C2 [(1S,2R)-10,2-camphorsultam]
21 | -96 °C | CCc1cccc(C)c1 [3-ethyltoluene]

Row | melting point | Structure (SMILES)
22 | 52 °C | CC1(C)C2CCC1(C)C(O)/C2=C\CC(=O)O (stereo unspecified)
23 | 49 °C | CCOC(N)=O [ethyl carbamate]
24 | 139 °C | Nc1ccc(N=Nc2ccccc2)c(N)n1 [phenazopyridine]
25 | 136 °C | CCOC(=O)c1ccc(NC(=O)C(F)(F)C(F)(F)C(F)(F)C(F)(F)C(F)(F)C(F)(F)C(F)(F)C(F)(F)F)cc1
26 | 201 °C | Nc1ccc(NC(=O)c2ccc(N)cc2)cc1 [4,4'-diaminobenzanilide]
27 | 319 °C | Nc1cccc2c(=O)[nH][nH]c(=O)c12 [5-Amino-2,3-dihydrophthalazine-1,4-dione]
28 | 37 °C | C=Cc1ccc(C(C)=O)cc1 [p-acetylstyrene]
29 | 118 °C | O=C(Oc1cccc(OC(=O)c2ccccc2)c1)c1ccccc1 [1,3-dibenzoyloxybenzene]
30 | 138 °C | Cc1ccc(C(=O)c2ccccc2C(=O)O)cc1 [2-(4-toluoyl)benzoic acid]
31 | 86 °C | COC(=O)c1cc2ccccc2cn1 [methyl isoquinoline-3-carboxylate]
32 | 193 °C | O=C(O)/C=C/c1ccc(B(O)O)cc1 [4-(2-carboxyvinyl)benzeneboronic acid]
33 | 97.8 °C | Cc1ccc(-n2ncccc2=O)cc1 [2-(4-Methylphenyl)pyridazin-3(2H)-one]
34 | 172 °C | N#Cc1ccccc1C(N)=O [o-cyanobenzamide]
35 | 127 °C | O=C(/C=C/c1ccc(-c2ccc(Cl)cc2)o1)c1ccccc1 [(2E)-3-[5-(4-Chlorophenyl)-2-furyl]-1-phenylprop-2-en-1-one]
36 | 56 °C | CC(=O)CCc1ccc(CCC(C)=O)cc1 [4,4'-benzene-1,4-diyldibutan-2-one]
37 | 180 °C | CC1=C(/C=C/C(C)=C/C=C/C(C)=C/C=C/C=C(C)/C=C/C=C(C)/C=C/C2=C(C)CCCC2(C)C)C(C)(C)CCC1 [beta-carotene]
38 | 55 °C | CCCCCCCCP(=O)(CCCCCCCC)CCCCCCCC [tri-n-octylphosphine oxide]
39 | 291 °C | C[C@@H](N)C(=O)O [d-alanine]
40 | 178 °C | CCN1CCCC1CNC(=O)c1cc(S(N)(=O)=O)ccc1OC (stereo unspecified) [sulpiride]
41 | 62.5 °C | Cc1cc(C=O)c(C)n1-c1ccccn1 [OSM-S-44]
42 | 166 °C | CC12CCC(/C(=C/Nc3ccccc3)C1=O)C2(C)C (stereo unspecified)

Row | melting point | Structure (SMILES)
43 | 189 °C | Nc1ccc(C(=O)O)cc1 [p-aminobenzoic_acid]
44 | -44 °C | CCCCCCCCC(=O)OCC [ethyl nonanoate]
45 | 116 °C | O=Cc1ccc(C=O)cc1 [terephthalaldehyde]
46 | 26 °C | CC(C)(N)CO [2-amino-2-methyl-1-propanol]
47 | 216 °C | O=C(O)c1cc(-c2ccc(F)cc2F)ccc1O [Diflunisal]
48 | 130 °C | CNC[C@H](O)[C@@H](O)[C@H](O)[C@H](O)CO [N-methyl-D-glucamine]
49 | 21 °C | OC1CCCCC1 [cyclohexanol]
50 | 110 °C | CC(C(=O)O)c1ccc(-c2ccccc2)c(F)c1 (stereo unspecified) [flurbiprofen]
51 | 92 °C | CC(C)(C)OC(=O)N1CCS[C@H]1C(=O)O [(S)-3-boc-thiazolidine-2-carboxylic acid]
52 | 140 °C | ClCc1c2ccccc2cc2ccccc12 [9-(chloromethyl)anthracene]
53 | -49 °C | C=CCCCCCCCCC [1-undecene]
54 | 225 °C | CN1C(CCl)Nc2cc(Cl)c(S(N)(=O)=O)cc2S1(=O)=O (stereo unspecified) [methyclothiazide]
55 | 100 °C | Nc1cc(C(F)(F)F)ccc1[N+](=O)[O-] [2-nitro-5-(trifluoromethyl)aniline]
56 | -140 °C | C=CCCCC [Hex-1-ene]
57 | 61 °C | COC(=O)c1ccc(C=O)cc1 [methyl 4-formylbenzoate]
58 | 43 °C | CCCCCCCCCCNCCCCCCCCCC [N-Decyldecan-1-amine]
59 | 216 °C | Nc1cc(C(=O)O)ccc1Cl [3-amino-4-chlorobenzoic acid]
60 | 85 °C | COc1cccc(OC)c1CN [2,6-dimethoxybenzylamine]
61 | 51 °C | COC(=O)c1cccc(N)c1 [methyl 3-aminobenzoate]
62 | 187 °C | O=C(O)c1cccc(I)c1 [3-iodobenzoic acid]
63 | 96 °C | CCN(Cc1ccncc1)C(=O)C(CO)c1ccccc1 (stereo unspecified) [tropicamide]

Row | melting point | Structure (SMILES)
64 | 190 °C | O=C(O)CNC(=O)c1ccccc1 [hippuric acid]
65 | 18 °C | O=C(O)CCS [3-mercaptopropionic acid]
66 | 61 °C | CSC(SC)=C(C#N)C#N [[Bis(Methylthio)Methylene]Malononitrile]
67 | 203 °C | CC(C)(C)NC(=O)C(c1ccccc1)N(Cc1ccco1)C(=O)CNC(=O)OC(C)(C)C (stereo unspecified) [Ugi product 206B(UC)]
68 | 218 °C | C[C@]12CCC(=O)C=C1CC[C@@H]1[C@@H]2[C@@H](O)C[C@@]2(C)[C@H]1CC[C@]2(O)C(=O)CO [Hydrocortisone]
69 | 234 °C | O=C(O)/C=C/c1ccc(Cl)cc1Cl [trans-2,4-dichlorocinnamic acid]
70 | 198 °C | CC(C)(S)[C@@H](N)C(=O)O [Penicillamine]
71 | 117 °C | CCOC(=O)c1ccc(O)cc1 [ethyl 4-hydroxybenzoate]
72 | 128 °C | CCS(=O)(=O)CCn1c([N+](=O)[O-])cnc1C [Tinidazole]
73 | -140 °C | C=CCCCC [1-hexene]
74 | 7 °C | ClC/C=C/c1ccccc1 [cinnamyl chloride]
75 | 49 °C | CCOC(=O)C(C#N)=Cc1ccccc1 [Ethyl 2-Cyano-3-Phenylacrylate]
76 | 77 °C | CC(C)(C)c1cc(N)n[nH]1 [3-amino-5-tert-butyl-1h-pyrazole]
77 | 90 °C | CS(N)(=O)=O [methanesulfonamide]
78 | 99 °C | Cc1cc(C(F)(F)F)n2nc(N)c(/N=N/c3c(Br)cc(Br)cc3Br)c2n1
79 | 150 °C | OB(O)c1c(C(F)(F)F)cccc1C(F)(F)F [2,6-bis(trifluoromethyl)benzeneboronic acid]
80 | 170 °C and 172 °C | c1ccc2[nH]cnc2c1 [benzimidazole]
81 | 104 °C | N#C/C(=C\c1ccc(Cl)cc1)c1nc(-c2ccccc2)cs1
82 | 89 °C | CCOC(=O)c1ccc(N)cc1 [ethyl_4-aminobenzoate]
83 | 100 °C | O=C(/C=C/OC(=O)c1ccccc1)CCc1ccccc1 [(1E)-3-oxo-5-phenylpent-1-en-1-yl benzoate]

Row | Structure (SMILES) | melting point
84 | CCCCCCCC#N [octanenitrile] | -45 °C
85 | Nc1ccccc1 [aniline] | -6 °C (4×) and -6.2 °C (2×)
86 | ClCc1ccc(Cl)cc1Cl [2,4-dichlorobenzyl chloride] | -3 °C
87 | Nc1ccc(Cl)cc1 [4-Chloroaniline] | 72.5 °C
88 | N#Cc1ccc(Cl)cc1 [4-chlorobenzonitrile] | 92 °C
89 | Brc1ccc(Br)c(Br)c1 [1,2,4-Tribromobenzene] | 44 °C
90 | ClC=C(Cl)Cl [trichloroethylene] | -85 °C
91 | Cc1nnc2n1-c1ccc(Cl)cc1C(c1ccccc1Cl)=NC2 [Triazolam] | 234 °C
92 | O=[N+]([O-])c1ccc(Cl)c(Cl)c1 [1,2-dichloro-4-nitrobenzene] | 41 °C
93 | Cl/C=C/Cl [trans-1,2-dichloroethylene] | -50 °C
94 | CC(C)(c1ccccc1)c1ccc(O)cc1 [4-(2-Phenylpropan-2-yl)phenol] | 71.5 °C
95 | O=C(Cl)c1ccc(Cl)cc1 [4-Chlorobenzoyl chloride] | 13 °C
96 | CNCC(O)c1ccccc1 (stereo unspecified) [2-(Methylamino)-1-phenylethanol] | 75 °C
97 | c1ccc(-c2ccc(-c3ccccc3)cc2)cc1 [p-terphenyl] | 214 °C
98 | C=CC(=O)OCCCC [N-butyl acrylate] | -64 °C
99 | Nc1cccc(Cl)c1Cl [2,3-dichloroaniline] | 24 °C
100 | Brc1cc(Br)cc(Br)c1 [1,3,5-tribromobenzene] | 123 °C
101 | N#CCCCl [3-chloropropionitrile] | -50 °C
